Measured values as given in patent US8802635B2, “Antioxidant, anti-inflammatory, anti-radiation, metal chelating compounds and uses thereof” (Oneday—Biotech And Pharma Ltd., priority 2011, dated 2014).
Non-standard residues stand in square brackets, D forms with d. βAla = NCCC(=O)O

Experiments:
[1] = tested on: carrageenan-induced hind paw swelling; experiment: Carrageenan-induced hind paw swelling; assay type: in vivo, mice; settings: 150 mg/kg i.p. 30 min prior to carrageenan; for swelling reduction compared to control: control saline only
Procedure: The above new five peptides were examined for anti-inflammatory activity, and their activity was compared to that of peptide CB3. Male ICR mice received an i.p. administration of each of the tested peptide (150 mg/kg) 30 min prior to the injection of carrageenan into the sub-plantar area of both of the animal's hind paws. Carrageenan was dissolved in water at concentration of 3 mg/ml and injected at a volume of 50 μl. Hind paw thickness was measured by Mitutoyo® micrometer before carrageenan injection and afterward at intervals of 1 hour between each measurement. Swelling was calculated as the difference between the thickness of the hind paw measured at each time interval and its size at time 0 (before carrageenan injection). n=6 foot pads (3 animals) for each group.

[2] = tested on: JNK (c-Jun N-terminal kinases); experiment: Inhibition of oxidative stress (auranofin)-induced JNK phosphorylation in SH-SY5Y cells; assay type: cell-based, Human; settings: auranofin 5 μM
Procedure: Human neuroblastoma SH-SY5Y cells were maintained in Dulbecco's modified Eagle's medium (DMEM, Invitrogen) supplemented with 10% fetal bovine serum (Invitrogen), 100 μg/ml streptomycin and 100 U/ml penicillin G (Gibco). Cells were plated at a density of 6.25×10^4/cm^2 and incubated for 24 hours, after which they were exposed to different treatments.
SH-SY5Y cells were plated on 96-well plates and treated with Auranofin (AuF) (5 μM) for 30 min. Then the cells were washed with PBS and treated with either one of the peptides at the indicated concentrations. Twenty-four hours later, the cells were fixed with glutaraldehyde in final concentration of 0.5% for 10 min. Cells were washed 3 times with DDW dried over night, and washed once with borate buffer (0.1M, pH 8.5). The fixed cells were stained with 200 μl of 1% methylene blue dissolved in borate buffer for 1 hour. After extensive washing and drying, the color was extracted with 200 μl of 0.1 M HCl for 1 h at 37° C. and absorbance was read in spectrophotometer at 630 nm.
Twenty to thirty micrograms of protein samples were loaded on 10-12% SDS-PAGE gels. The proteins were then transferred electrophoretically to nitrocellulose (Whatman, Germany). The blots were blocked by incubation for 1 h at room temperature (RT) in TBS-T (25 mM Tris-HCl pH 7.4, 0.9% NaCl and 0.02% Tween-20) with 4% Difco skim milk (BD, USA), and incubated over-night at 4° C. with the primary antibody: pERK1/2 (Thr 202/Tyr204), mouse mAb, (1:6,000); p-SAPK/JNK (Thr183/Tyr185), rabbit mAb; SAPK/JNK, mouse mAb; p-p38MAP Kinase (Thr180/Tyr182), rabbit mAb; cleaved caspase 3, rabbit mAb. All antibodies were from Cell Signaling Tech. USA, used at 1:1000. Purified b Catenin, mouse mAb, (1:10,000; BD Transduction Laboratories, USA) diluted in 5% BSA, 0.04% Azide in TBS-T. Proteins were detected with Anti-Mouse or Anti-Rabbit IgG-HRP linked antibody (1:10,000; Cell Signaling, Tech. USA).

anti-OVA serum IgE = experiment: Ovalbumin-induced hypersensitivity: serum anti-OVA IgE; assay type: in vivo, mice; settings: for effect on OVA-induced elevation of anti-OVA serum IgE titer (in words) / rank order of reduction of anti-OVA serum IgE titer: 125 mg/kg i.p. on days 13, 14, 15, blood day 16
Procedure: Male BALB/c mice (6-8 weeks old) were housed under specific pathogen-free conditions and maintained on a 12-hour light/dark cycle, with food and water ad libitum. All materials and drugs were obtained from Sigma, Inc.
Mice in Groups A, B, C, and E (n=10 per group) were sensitized with intraperitoneal (i.p.) 200 μl of sterile PBS containing 100 μg ovalbumin (OVA) and 1.6 mg alum on days 0 and 7, and challenged with intraperitoneal (i.p.) 200 μl of sterile PBS containing 10 μg ovalbumin (OVA) on day 14 in order to induce an experimental model of allergic peritonitis. Mice in Group F (n=10) were injected with intraperitoneal (i.p) 200 μl sterile PBS (“sham” group, no OVA and no Alum).
Mice in Groups A, B, and C, were treated with 150 μl of sterile PBS containing peptides DY-66, DY-65 and DY-70, respectively, at a dose of 125 mg/kg on days 13, 14, and 15 via an i.p. route of administration.
Mice in Groups E and F were treated with 150 μl of sterile PBS on days 13, 14, and 15 via an i.p. route of administration. On day 14 the test articles (or PBS vehicle) were injected 30 minutes before injecting the OVA.
Blood taken on day 16 was tested for 1) serum anti-OVA IgE, 2) white blood cell count and differential (including absolute and percentage of eosinophils count). Serum was frozen at −80° C. for future optional blood tests.

HaCaT cells = experiment: UVB-induced cytotoxicity in HaCaT cells (MTT); assay type: cell-based; settings: UVB 0.05 J/cm^2; MTT after 72 hours
Procedure: HaCaT cells were seeded in 96-wells plate (10×10^4/ml) and incubated in 37° C., 6% CO2 for 24 hours. Cells were incubated with the peptides at the indicated concentrations for 2.5 hours and washed (PBS). Then 100 μl PBS were added to each well followed by UVB irradiation (0.05 J/cm^2). Cells were washed with PBS and incubated with culture medium (DMEM, 100 μl) containing the peptides. MTT assay was carried out after 72 hours.

[3] = tested on: alanine aminotransferase (ALT) in plasma / liver necrosis; experiment: Concanavalin A-induced liver inflammation in C57BL/6 mice; assay type: in vivo
Procedure: Six groups of C57BL/6 female mice (7-8 weeks old) containing 6 mice in each group were injected i.p. with different peptide on days −3, −2, −1 at a dose of 50 mg/kg or with PBS alone. On day zero all the mice were injected i.v. with 250 μg/mouse of Con A and 45 min. later they were injected i.p. with 150 mg/kg of each peptide or PBS.
Eight hours after Con A injection mice were bled into heparinized tubes (approx. 150 ul of blood from each mouse) and the levels of alanine aminotransferase (ALT) was measured in the plasma.
One day later the mice were sacrificed and their livers were placed in 4% formalin and sent for pathological examination.
Next, peptide DY-66 was examined and compared to N-acetylcysteine (NAC), CB3 and CB4. The compounds were tested according to the procedure described above. ConA dose was 180 μg/mouse.
FIG. 8 presents the change in ALT levels (%) for each of the tested compounds compared to PBS treatment (i.e., the ratio between ALT levels in samples obtained from mice treated with a tested compound and ALT levels in samples obtained from PBS-treated mice)

[4] = Metal chelation: copper binding by mass spectra (ESI); settings: 0.83 mM peptide, 1.66 mM CuSO4, 1 hour room temperature
Procedure: All five peptides were examined for their ability to bind copper and ferric ions. 0.83 mM of each peptide were mixed with 1.66 mM of either FeCL3 or CuSO4. The mixtures were incubated for 1 hour at room temperature and further kept at ° 4 C until analysis. Samples were analyzed by mass spectra (ESI).

[5] = Con A 250 μg/mouse i.v., 8 h after Con A

Row | Substance | swelling reduction compared to control ([1]; after 1 hour) [%] | swelling reduction compared to control ([1]; after 2 hours) [%] | swelling reduction compared to control ([1]; after 3 hours) [%] | IC50 [2] [µM] | effect on OVA-induced elevation of anti-OVA serum IgE titer (in words) (anti-OVA serum IgE) | rank order of reduction of anti-OVA serum IgE titer (anti-OVA serum IgE) | greatest reduction of the OVA-induced elevation of anti-OVA serum IgE (anti-OVA serum IgE; 125 mg/kg i.p., % of the OVA-induced elevation) | protection against UVB-induced cytotoxicity (in words) (HaCaT cells) | mice found dead ([3]; 24 hours post Con A 250 μg, 6 mice in each group) | copper binding (in words) [4] | hind paw swelling compared to control (in words) [1] | necrotic area in liver, histo-pathological report (in words) ([3]; Con A 250 μg/mouse i.v.) | reduction of ALT average compared to PBS-treated mice [3, 5] [%] | reduction of ALT median compared to PBS-treated mice [3, 5] [%] | reduction of ALT average compared to PBS-treated mice ([3]; ConA dose 180 μg/mouse) [%] | reduction of ALT median compared to PBS-treated mice ([3]; ConA dose 180 μg/mouse) [%]
1 | N-acetyl-Cys-Lys-Met-Cys-NH2 (Ac-CKMC-NH2; cysteine pairing not given here) [DY-65] | 40 | 27 | 34 | 32.3 | significantly reduced the elevation | DY-65>DY-70>DY-66 | ca. 60% | protective effect at low concentrations | 1 | binding was observed | – | – | – | – | – | –
2 | N-acetyl-Cys-βAla-His-Cys-NH2 (Ac-C[βAla]HC-NH2; cysteine pairing not given here) [DY-66] | – | – | – | 86.9 | significantly reduced the elevation | DY-65>DY-70>DY-66 | – | protective effect at low concentrations | – | low degree | Reduced swelling compared to control | significant (p=0.011) decrease in necrotic area | 69 | 75 | 71 | 89
